Experimental data taken from publication PMC5722316, “Synthesis of novel purpurealidin analogs and evaluation of their effect on the cancer-relevant potassium channel KV10.1” (PLoS ONE, 2017).
Like-named read-outs stand apart in the source and are kept apart here.

How the values were obtained:
hKV10.1a = biological target: T1, hKV10.1a (Homo sapiens, UniProt O95259); assay: Two-electrode voltage-clamp recordings of KV10.1 currents in Xenopus laevis oocytes; type: cell-based
T1 construct: expressed in transfected cells; host or cells: Xenopus laevis oocytes injected with cRNA transcribed from the hKV10.1a-pSGEM plasmid
T1 sequence (O95259 1-962 isoform O95259-2): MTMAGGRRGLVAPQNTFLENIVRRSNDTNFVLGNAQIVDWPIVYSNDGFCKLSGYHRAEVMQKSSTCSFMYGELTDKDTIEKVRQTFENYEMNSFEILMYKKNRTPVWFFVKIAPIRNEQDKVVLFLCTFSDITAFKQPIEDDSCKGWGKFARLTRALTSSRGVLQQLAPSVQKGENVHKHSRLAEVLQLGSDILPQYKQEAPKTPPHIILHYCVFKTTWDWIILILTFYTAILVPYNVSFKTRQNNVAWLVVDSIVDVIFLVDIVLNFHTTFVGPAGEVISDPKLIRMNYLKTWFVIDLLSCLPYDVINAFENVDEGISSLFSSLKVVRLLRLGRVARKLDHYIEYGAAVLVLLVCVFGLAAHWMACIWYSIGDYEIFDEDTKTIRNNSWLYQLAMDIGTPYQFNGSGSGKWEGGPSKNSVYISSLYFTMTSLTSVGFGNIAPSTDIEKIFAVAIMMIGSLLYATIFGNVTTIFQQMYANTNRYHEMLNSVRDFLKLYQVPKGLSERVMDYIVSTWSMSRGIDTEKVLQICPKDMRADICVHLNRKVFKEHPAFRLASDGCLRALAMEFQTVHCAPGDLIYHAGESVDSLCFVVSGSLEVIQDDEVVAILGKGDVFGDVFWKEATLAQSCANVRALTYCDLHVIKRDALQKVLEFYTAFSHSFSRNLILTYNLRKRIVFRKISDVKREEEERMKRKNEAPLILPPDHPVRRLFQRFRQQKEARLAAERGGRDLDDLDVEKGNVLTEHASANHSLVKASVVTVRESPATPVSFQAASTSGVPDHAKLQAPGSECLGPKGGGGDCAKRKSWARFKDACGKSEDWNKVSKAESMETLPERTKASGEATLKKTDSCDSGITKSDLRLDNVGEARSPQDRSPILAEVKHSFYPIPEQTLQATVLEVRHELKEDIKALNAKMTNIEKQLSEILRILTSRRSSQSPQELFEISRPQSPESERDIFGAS
Description: For the expression of hKV10.1a (GeneBank accession number: NM_002238.3) in Xenopus oocytes, the hKV10.1a-pSGEM plasmid was linearized with SfiI (ThermoFisher Scientific, Waltham, Massachusetts, USA) and transcribed using the T7 mMESSAGE-mMACHINE transcription kit (Ambion®, Carlsbad, California, USA).
Stage V-VI Xenopus laevis (African clawed frog) oocytes were isolated by partial ovariectomy. Mature female animals were purchased from Nasco (Fort Atkinson, Wisconsin, USA) and were housed in the Aquatic Facility (KU Leuven) in compliance with the regulations of the European Union (EU) concerning the welfare of laboratory animals as declared in Directive 2010/63/EU. The use of Xenopus laevis was approved by the Animal Ethics Committee of the KU Leuven (Project nr. P038/2017). Prior to harvesting the oocytes, the animals were anesthetized by a 15-min submersion in 0.1% tricaine methanesulfonate (pH 7.0). Isolated oocytes were defolliculated with 1.5 mg/mL collagenase.
Defolliculated oocytes were injected with 4 nL of cRNA at a concentration of 1 ng/nL using a micro-injector (Drummond Scientific®, Broomall, Pennsylvania, USA). The oocytes were incubated in a solution containing (in mM): NaCl, 96; KCl, 2; CaCl2, 1.8; MgCl2, 2 and HEPES, 5 (pH 7.4), supplemented with 50 mg/L gentamycin sulfate.
Two-electrode voltage-clamp recordings were performed at room temperature (18–22°C) using a Geneclamp 500 amplifier (Molecular Devices, USA) controlled by a pClamp data acquisition system (Axon Instruments®, Union City, California, USA). Whole cell currents from oocytes were recorded 1–4 days after injection. Bath solution composition was (in mM): NaCl, 96; KCl, 2; CaCl2, 1.8; MgCl2, 2 and HEPES, 5 (pH 7.5). Voltage and current electrodes were filled with a 3 M solution of KCl in H2O. Resistances of both electrodes were kept between 0.5 and 1.5 MΩ. The elicited KV10.1 currents were filtered at 1 kHz and sampled at 2 kHz using a four-pole low-pass Bessel filter. Leak subtraction was performed using a -P/4 protocol. KV10.1 currents were evoked by 2-s depolarizing pulses to 0 mV from a holding potential of -90 mV unless otherwise indicated.
All electrophysiological data are presented as means ± S.E.M of n ≥ 3 independent experiments unless otherwise indicated. All data was analyzed using pClamp Clampfit 10.4 (Molecular Devices®, Downingtown, Pennsylvania, USA) and OriginPro 8 (Originlab®, Northampton, Massachusetts, USA) or GraphPad Prism 5 software (GraphPad Software, Inc., San Diego, California, USA).

Xenopus oocytes = assay: 48-h incubation of Xenopus oocytes, oocyte quality; type: cell-based, Xenopus laevis; conditions: 10 μM
Description: A dose-dependent antiproliferative and cytotoxic effect was not only observed on the KV10.1-expressing cells but also on the control cell lines.

COc1ccc(C(=O)NCCc2cc(Br)c(OCCCN(C)C)c(Br)c2)cc1Cl [Compound 5, 3-Chloro-N-[3,5-dibromo-4-[3-(dimethylamino)propoxy]phenethyl]-4-methoxybenzamide]
remaining current, % of the control current (hKV10.1a; 10 μM added during 20-s continuous step to 30 mV): approximately 50%
reversibility of KV10.1 inhibition (hKV10.1a; 10 μM, wash-out): reversible
effect on KV10.1 inactivation (two-pulse protocol) (hKV10.1a; 10 μM, 1.5-s prepulse -140 mV to 50 mV, 0.5-s test pulse to 30 mV): an apparent inactivation is induced
inhibition at 10 µM (hKV10.1a; 10 μM, 2-s depolarizing pulses to 0 mV from -90 mV, read-out: KV10.1 current inhibition): 51 ± 3%
shift of activation curve (ΔV1/2) to more negative potentials (hKV10.1a; 10 μM, ND96 (2 mM extracellular K+), Boltzmann fit): 21.0 ± 1.6 mV
half-maximal voltage of activation (V1/2) in presence of compound (hKV10.1a; 10 μM, ND96 (2 mM extracellular K+), control V1/2 = 23.2 ± 0.4 mV): 2.1 ± 0.4 mV
slope factor k of activation curve in presence of compound (hKV10.1a; 10 μM, ND96, control k = 15.5 ± 0.4): 13.8 ± 0.3
time constant (τ) of wash-out (hKV10.1a; 10 μM, one phase association equation): ~ 20 s
exponential time constant (τ) of wash-in (hKV10.1a; 10 μM, one phase decay equation): 5.3 s
inhibition at 10 µM (hKV10.1a; 10 μM, oocyte clamped at -90 mV for 10 minutes, then 2-s pulse to 0 mV, read-out: KV10.1 current inhibition after clamping at -90 mV): 53 ± 4%
KV10.1 current inhibition (hKV10.1a; 40 μM, extracellular perfusion, average ± SEM): 86.9 ± 1.3%
inhibition at 40 µM (hKV10.1a; 40 μM, extracellular perfusion, average ± SEM, read-out: KV10.1 current inhibition): 87 ± 1%
Hill coefficient (hKV10.1a; 8 concentrations 0.04 μM to 80 μM, logistic dose-response fit): 1.6 ± 0.3
IC50 (hKV10.1a; 8 concentrations 0.04 μM to 80 μM, logistic dose-response fit, read-out: IC50 of KV10.1 current inhibition): 7.7 ± 1 µM
competition plot with mibefradil (hKV10.1a; mixtures p*10 μM 5 and (1-p)*10 μM mibefradil, 7 ratios): compete for the same binding site
oocyte quality (visual and electrophysiological observation) (Xenopus oocytes): did not result in noticeable deterioration of the oocyte quality
